In the supplement of paper PMC10307832:

What was measured:
Assay in all cases: relative viability (nuclei count vs DMSO), 5 days (fraction); higher = more cells survive
Bexarotene + Olaparib = compound: C=C(c1ccc(C(=O)O)cc1)c1cc2c(cc1C)C(C)(C)CCC2(C)C [Bexarotene] + O=C(c1cc(Cc2n[nH]c(=O)c3ccccc23)ccc1F)N1CCN(C(=O)C2CC2)CC1 [Olaparib] (partner 8 µM)
Summary of the method: (§1)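 Lung cancer cell lines were seeded in 1536-well plates and dosed by pin tool the next day, with either a single drug or a fixed anchor-drug dose combined with five library-drug doses (not always all listed) spaced in √10 steps. Five days later, one step fixed the cells and stained their nuclei (final 0.05% Triton X-100, 1% formaldehyde, 1 ug/ml Hoechst), and nuclei were counted on 4× images. Relative viability is the nuclei count in treated wells divided by the count in vehicle wells, and each value is the median of duplicate plates.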

Bexarotene + Bortezomib = compound: C=C(c1ccc(C(=O)O)cc1)c1cc2c(cc1C)C(C)(C)CCC2(C)C [Bexarotene] + CC(C)C[C@H](NC(=O)[C@H](Cc1ccccc1)NC(=O)c1cnccn1)B(O)O [Bortezomib] (partner 0.002 µM)
Summary of the method: as §1

Bexarotene + Pemetrexed = compound: C=C(c1ccc(C(=O)O)cc1)c1cc2c(cc1C)C(C)(C)CCC2(C)C [Bexarotene] + Nc1nc2[nH]cc(CCc3ccc(C(=O)N[C@@H](CCC(=O)O)C(=O)O)cc3)c2c(=O)[nH]1 [Pemetrexed] (partner 0.2 µM)
Summary of the method: as §1

Bexarotene + Alpelisib = compound: C=C(c1ccc(C(=O)O)cc1)c1cc2c(cc1C)C(C)(C)CCC2(C)C [Bexarotene] + Cc1nc(NC(=O)N2CCC[C@H]2C(N)=O)sc1-c1ccnc(C(C)(C)C(F)(F)F)c1 [Alpelisib] (partner 2 µM)
Summary of the method: as §1

Row | Cell Line | relative viability (Bexarotene + Olaparib; first compound 0.08 µM) | relative viability (Bexarotene + Olaparib; first compound 0.253 µM) | relative viability (Bexarotene + Olaparib; first compound 0.8 µM) | relative viability (Bexarotene + Olaparib; first compound 2.53 µM) | relative viability (Bexarotene + Olaparib; first compound 8 µM) | relative viability (Bexarotene + Bortezomib; first compound 0.08 µM) | relative viability (Bexarotene + Bortezomib; first compound 0.253 µM) | relative viability (Bexarotene + Bortezomib; first compound 0.8 µM) | relative viability (Bexarotene + Bortezomib; first compound 2.53 µM) | relative viability (Bexarotene + Bortezomib; first compound 8 µM) | relative viability (Bexarotene + Pemetrexed; first compound 0.08 µM) | relative viability (Bexarotene + Pemetrexed; first compound 0.253 µM) | relative viability (Bexarotene + Pemetrexed; first compound 0.8 µM) | relative viability (Bexarotene + Pemetrexed; first compound 2.53 µM) | relative viability (Bexarotene + Pemetrexed; first compound 8 µM) | relative viability (Bexarotene + Alpelisib; first compound 0.08 µM) | relative viability (Bexarotene + Alpelisib; first compound 0.253 µM) | relative viability (Bexarotene + Alpelisib; first compound 0.8 µM) | relative viability (Bexarotene + Alpelisib; first compound 2.53 µM) | relative viability (Bexarotene + Alpelisib; first compound 8 µM)
1 | 201T | 0.837 | 0.823 | 0.777 | 0.919 | 0.709 | 1.08 | 1.1 | 1.07 | 1.08 | 1.05 | 0.385 | 0.295 | 0.322 | 0.355 | 0.347 | 1.02 | 0.991 | 0.941 | 0.916 | 0.909
2 | A549 | 0.245 | 0.388 | 0.35 | 0.291 | 0.3 | – | – | – | – | – | – | – | – | – | – | 0.992 | 0.826 | 0.836 | 0.671 | 0.686
3 | A-427 | 0.716 | 0.781 | 0.654 | 0.743 | 0.728 | 0.933 | 0.923 | 0.79 | 0.897 | 0.932 | 0.938 | 0.872 | 0.794 | 0.773 | 0.904 | 1.08 | 1.02 | 0.89 | 0.89 | 0.926
4 | ABC-1 | 0.827 | 0.839 | 0.478 | – | 0.631 | 0.3 | 0.311 | 0.269 | 0.291 | 0.336 | – | – | – | – | – | 0.714 | 0.892 | 0.949 | 0.953 | 0.87
5 | BEN | 1.05 | 0.942 | 1 | 0.853 | 1.06 | 0.905 | 0.599 | 0.672 | 0.496 | 0.649 | 0.883 | 0.629 | 0.784 | 0.637 | 0.725 | 1.03 | 0.962 | 0.898 | 0.836 | 0.893
6 | CAL-12T | 0.728 | 0.64 | 0.658 | 0.648 | 0.67 | 1.02 | – | 0.849 | – | 0.816 | 1.15 | 1.19 | 1.21 | 1.13 | 1.06 | 1.29 | 1.3 | 1.33 | 1.17 | 0.94
7 | COR-L23 | 0.344 | 0.365 | 0.323 | 0.373 | 0.301 | 1.06 | 0.989 | 0.898 | 0.933 | 0.892 | 0.198 | 0.206 | 0.198 | 0.214 | 0.202 | 0.872 | 0.768 | 0.555 | 0.685 | 0.757
8 | COR-L 105 | 0.698 | 0.743 | 0.898 | 0.784 | 0.913 | 0.98 | 0.98 | 0.988 | 0.965 | 0.909 | 0.983 | 1.16 | 1.14 | 1.17 | 1.14 | 0.928 | 0.977 | 1.04 | 1.14 | 0.916
9 | Calu-6 | 0.638 | 0.563 | 0.494 | 0.606 | 0.568 | 1 | 0.915 | 0.904 | 0.922 | 1.27 | – | – | – | – | – | 1.12 | 0.917 | 0.934 | 0.958 | 1.05
10 | ChaGo-K-1 | 0.411 | 0.413 | 0.408 | 0.395 | 0.42 | 1.04 | 1.03 | 1.05 | – | 1.06 | 0.274 | 0.249 | 0.251 | 0.253 | 0.275 | – | – | – | – | –
11 | EBC-1 | 0.771 | 0.713 | 0.588 | 0.701 | 0.715 | 0.63 | 0.541 | 0.415 | 0.555 | 0.442 | – | – | – | – | – | 1.22 | 0.989 | 0.756 | 0.89 | 0.868
12 | EKVX | 0.838 | 0.993 | 0.947 | 0.946 | 0.948 | 0.999 | 1.28 | 1.07 | 1.1 | 1.09 | 0.423 | 0.54 | 0.355 | 0.43 | 0.362 | 0.889 | 0.855 | 0.781 | 0.849 | 0.76
13 | EMC-BAC-2 | 0.522 | 0.514 | 0.504 | – | 0.515 | 1.24 | 1.03 | 0.97 | 1.05 | 1.03 | 0.44 | 0.441 | 0.394 | – | 0.419 | 0.748 | 0.735 | 0.705 | 0.73 | 0.719
14 | EPLC-272H | 0.824 | 0.773 | 0.641 | 0.758 | 0.845 | 0.968 | 0.875 | 0.538 | 0.776 | 0.822 | 0.27 | 0.346 | 0.218 | 0.395 | 0.325 | 0.9 | 0.97 | 0.884 | 0.901 | 0.911
15 | H3255 | 0.603 | 0.692 | 0.659 | 0.642 | 0.654 | 0.733 | 0.919 | 0.784 | 0.65 | 0.856 | 0.585 | 0.577 | 0.551 | 0.554 | 0.558 | 0.655 | 0.789 | 0.715 | 0.862 | 0.72
16 | HARA | 0.752 | 0.838 | 0.925 | 0.731 | 0.715 | 1.16 | 1.04 | 1.02 | 1.02 | 1.03 | 0.292 | 0.31 | 0.217 | 0.248 | 0.244 | 0.705 | 0.714 | 0.456 | 0.52 | 0.597
17 | HCC-15 | 0.666 | 0.703 | 0.721 | 0.654 | 0.689 | 1.06 | 1.13 | 1.05 | 0.959 | 1.01 | 0.218 | 0.229 | 0.214 | 0.184 | 0.207 | 0.91 | 0.849 | 0.845 | 0.816 | 0.788
18 | HCC-44 | 1.07 | 1.11 | 1.05 | 1.03 | 1.05 | 0.997 | 1 | 0.851 | 0.823 | 0.822 | 0.694 | 0.738 | 0.658 | 0.741 | 0.65 | 0.894 | 0.855 | 0.741 | 0.735 | 0.722
